Patent EP4806435A1, “DIHYDROCHROMENE-DERIVATIVE-CONTAINING THERAPEUTIC AGENT FOR CANCER” (Sumitomo Pharma Co., Ltd., priority 2023, dated 2025)
Where two headings read alike, the source gives them in different places.

Test: Phase 1 clinical trial: plasma pharmacokinetics
Type: in vivo, human
Details: human, plasma, oral; for half-life: read-out: Effective T1/2 (converted); for AUC: tau = 24 hours
Method: Summary statistics based on preliminary data were obtained for the pharmacokinetics of Compound 1 in patients receiving once-daily doses ranging from 20 mg to 240 mg (Table 5). The mean plasma concentration-time curves of Compound 1 in the once-daily dose groups ranging from 20 mg to 240 mg are shown in Figure 11. In this study, one cycle consists of 28 days, and Cycle 1 Day 1 refers to Day 1 of the first cycle. […] Accumulation was observed after repeated administration. […] Based on these accumulation ratios, the half-life of Compound 1 was estimated to be approximately 4 days. Based on the currently available data, plasma concentrations are considered to have reached steady state by Day 15.
Summary statistics based on preliminary data were obtained for the pharmacokinetics of Compound 1 in patients in the 20 mg QD, 40 mg QD, 80 mg QD, 120 mg QD, 180 mg QD, 240 mg QD, 360 mg QD, and 480 mg daily (240 mg BID) dose groups (Table 6). The mean plasma concentration-time curves of Compound 1 in the 20 mg QD to 480 mg daily (240 mg BID) dose groups are shown in Figure 12 (in Figure 12, Compound 1 is denoted as "DSP-0390"). In this study, one cycle consists of 28 days, and Cycle 1 Day 1 refers to Day 1 of the first cycle. […] The median Tmax ranged from 2 to 8 hours. Accumulation was observed after repeated administration, and assuming linearity based on the observed accumulation ratios, the estimated elimination half-life was considered to be on the order of several days (approximately 1 to 6 days) (data cut-off: March 2024).

CC1(C)Oc2cc(Cl)ccc2[C@@H]2OCC3(CCN(CCn4ccnc4)CC3)C[C@H]21 [Compound 1, (4'aR,10'bR)-8'-chloro-1-[2-(1H-imidazol-1-yl)ethyl]-5',5'-dimethyl-4'a,10'b-dihydro-2'H,4'H,5'H-spiro[piperidine-4,3'-pyrano[3,2-c][1]benzopyran] diphosphate]
Cmax (80 mg, Cycle 2 Day 1, 80 mg, QD, cut-off April 2023, read-out: Cmax (median)): 61 ng/mL
Tmax (80 mg, Cycle 2 Day 1, 80 mg, QD, cut-off April 2023, read-out: Tmax (mean)): 8 h
Tmax (80 mg, Cycle 2 Day 1, 80 mg, QD, cut-off April 2023, read-out: Tmax (median)): 8 h
half-life (120 mg, 120 mg QD, cut-off March 2024): 67.2 h
Cmax (120 mg, Cycle 1, Day 1, 120 mg QD, cut-off March 2024, read-out: Cmax): 44.2 ng/mL
Tmax (120 mg, Cycle 1, Day 1, 120 mg QD, cut-off March 2024, read-out: Tmax [a] median value): 4 h
AUC (120 mg, Cycle 1, Day 1, 120 mg QD, cut-off March 2024, read-out: AUCtau [b]): 577 ng·h/mL
AUC(0-t) (120 mg, Cycle 1 Day 1, 120 mg, QD, cut-off April 2023, read-out: AUC0-24 (geometric mean)): 544 ng·h/mL
AUC(0-t) (120 mg, Cycle 1 Day 1, 120 mg, QD, cut-off April 2023, read-out: AUC0-24 (mean)): 583 ng·h/mL
AUC(0-t) (120 mg, Cycle 1 Day 1, 120 mg, QD, cut-off April 2023, read-out: AUC0-24 (median)): 605 ng·h/mL
Cmax (120 mg, Cycle 1 Day 1, 120 mg, QD, cut-off April 2023, read-out: Cmax (geometric mean)): 40 ng/mL
Cmax (120 mg, Cycle 1 Day 1, 120 mg, QD, cut-off April 2023, read-out: Cmax (mean)): 44 ng/mL
Cmax (120 mg, Cycle 1 Day 1, 120 mg, QD, cut-off April 2023, read-out: Cmax (median)): 45 ng/mL
Tmax (120 mg, Cycle 1 Day 1, 120 mg, QD, cut-off April 2023, read-out: Tmax (mean)): 4 h
Tmax (120 mg, Cycle 1 Day 1, 120 mg, QD, cut-off April 2023, read-out: Tmax (median)): 4 h
Cmax (120 mg, Cycle 2, Day 1, 120 mg QD, cut-off March 2024, read-out: Cmax,ss): 156 ng/mL
Tmax (120 mg, Cycle 2, Day 1, 120 mg QD, cut-off March 2024, read-out: Tmax,ss [a] median value): 5 h
AUC (120 mg, Cycle 2, Day 1, 120 mg QD, cut-off March 2024, read-out: AUCtau,ss [b]): 2610 ng·h/mL
AUC(0-t) (120 mg, Cycle 2 Day 1, 120 mg, QD, cut-off April 2023, read-out: AUC0-24 (geometric mean)): 2420 ng·h/mL
AUC(0-t) (120 mg, Cycle 2 Day 1, 120 mg, QD, cut-off April 2023, read-out: AUC0-24 (mean)): 2630 ng·h/mL
AUC(0-t) (120 mg, Cycle 2 Day 1, 120 mg, QD, cut-off April 2023, read-out: AUC0-24 (median)): 2330 ng·h/mL
Cmax (120 mg, Cycle 2 Day 1, 120 mg, QD, cut-off April 2023, read-out: Cmax (geometric mean)): 140 ng/mL
Cmax (120 mg, Cycle 2 Day 1, 120 mg, QD, cut-off April 2023, read-out: Cmax (mean)): 156 ng/mL
Cmax (120 mg, Cycle 2 Day 1, 120 mg, QD, cut-off April 2023, read-out: Cmax (median)): 138 ng/mL
Tmax (120 mg, Cycle 2 Day 1, 120 mg, QD, cut-off April 2023, read-out: Tmax (mean)): 6 h
Tmax (120 mg, Cycle 2 Day 1, 120 mg, QD, cut-off April 2023, read-out: Tmax (median)): 5 h
half-life (180 mg, 180 mg QD, cut-off March 2024): 50.4 h
Cmax (180 mg, Cycle 1, Day 1, 180 mg QD, cut-off March 2024, read-out: Cmax): 114 ng/mL
Tmax (180 mg, Cycle 1, Day 1, 180 mg QD, cut-off March 2024, read-out: Tmax [a] median value): 6 h
AUC (180 mg, Cycle 1, Day 1, 180 mg QD, cut-off March 2024, read-out: AUCtau [b]): 1370 ng·h/mL
AUC(0-t) (180 mg, Cycle 1 Day 1, 180 mg, QD, cut-off April 2023, read-out: AUC0-24 (geometric mean)): 1060 ng·h/mL
AUC(0-t) (180 mg, Cycle 1 Day 1, 180 mg, QD, cut-off April 2023, read-out: AUC0-24 (mean)): 1420 ng·h/mL
AUC(0-t) (180 mg, Cycle 1 Day 1, 180 mg, QD, cut-off April 2023, read-out: AUC0-24 (median)): 1840 ng·h/mL
Cmax (180 mg, Cycle 1 Day 1, 180 mg, QD, cut-off April 2023, read-out: Cmax (geometric mean)): 73 ng/mL
Cmax (180 mg, Cycle 1 Day 1, 180 mg, QD, cut-off April 2023, read-out: Cmax (mean)): 101 ng/mL
Cmax (180 mg, Cycle 1 Day 1, 180 mg, QD, cut-off April 2023, read-out: Cmax (median)): 140 ng/mL
Tmax (180 mg, Cycle 1 Day 1, 180 mg, QD, cut-off April 2023, read-out: Tmax (mean)): 11 h
Tmax (180 mg, Cycle 1 Day 1, 180 mg, QD, cut-off April 2023, read-out: Tmax (median)): 6 h
Cmax (180 mg, Cycle 2, Day 1, 180 mg QD, cut-off March 2024, read-out: Cmax,ss): 215 ng/mL
Tmax (180 mg, Cycle 2, Day 1, 180 mg QD, cut-off March 2024, read-out: Tmax,ss [a] median value): 6 h
AUC (180 mg, Cycle 2, Day 1, 180 mg QD, n=3, cut-off March 2024, read-out: AUCtau,ss [b]): 4860 ng·h/mL
AUC(0-t) (180 mg, Cycle 2 Day 1, 180 mg, QD, N=1, cut-off April 2023, read-out: AUC0-24 (geometric mean)): 7260 ng·h/mL
AUC(0-t) (180 mg, Cycle 2 Day 1, 180 mg, QD, N=1, cut-off April 2023, read-out: AUC0-24 (mean)): 7260 ng·h/mL
AUC(0-t) (180 mg, Cycle 2 Day 1, 180 mg, QD, N=1, cut-off April 2023, read-out: AUC0-24 (median)): 7260 ng·h/mL
Cmax (180 mg, Cycle 2 Day 1, 180 mg, QD, cut-off April 2023, read-out: Cmax (geometric mean)): 281 ng/mL
Cmax (180 mg, Cycle 2 Day 1, 180 mg, QD, cut-off April 2023, read-out: Cmax (mean)): 287 ng/mL
Cmax (180 mg, Cycle 2 Day 1, 180 mg, QD, cut-off April 2023, read-out: Cmax (median)): 287 ng/mL
Tmax (180 mg, Cycle 2 Day 1, 180 mg, QD, cut-off April 2023, read-out: Tmax (mean)): 7 h
